Marks after values point to notes of the source that are not given here.
Tests used:
Ovariectomized Rat = experiment: 6-Week Ovariectomized Rat Model; format: in vivo; settings: ovx rats, daily x7 days/week, mean; for BMD L4 / BMD Proximal Tibia: following 5 weeks of treatment; for Body Weight / Cholesterol / Uterine Weight: following 6 weeks of treatment
Description: Female Sprague Dawley CD rats, ovx or sham ovx, were obtained 1 day after surgery from Taconic Farm (weight range 240 - 275 g). They were housed 3 or 4 rats/cage in a room on a 14/10 (light/dark) schedule and provided with food (Purina 500 rat chow) and water ad libitum. Treatment for all studies began 1 day after the animals arrival and dosed 5 or 7 days per week as indicated for 6 weeks. A group of age matched sham operated rats not receiving any treatment served as an intact, estrogen replete control group for each study. All treatments were prepared in 1% tween 80 in normal saline at defined concentrations so that the treatment volume was 0.1mL/100g body weight. 17-beta estradiol was dissolved in corn oil (20 uG/mL) and delivered subcutaneously, 0.1 mL/rat. All dosages were adjusted at three week intervals according to group mean body weight measurements.
Five weeks after the initiation of treatment and one week prior to the termination of the study, each rat was evaluated for bone mineral density (BMD). The BMD's of the proximal tibiae (PT) and fourth lumbar vertabrae (L4) were measured in anesthetized rats using a dual energy X-ray absorptiometer (Eclipse XR-26, Norland Corp. Ft. Atkins, WI). The dual energy X-ray absorptiometer (DXA) measurements for each rat were performed as follows: Fifteen minutes prior to DXA measurements, the rat was anesthetized with an intraperitoneal injection of 100 mg/kg ketamine (Bristol Laboratories, Syracuse, NY) and 0.75 mg/kg acepromazine (Aveco, Ft.Dodge, IA). The rat was placed on an acrylic table under the DXA scanner perpendicular to its path; the limbs were extended and secured with paper tape to the surface of the table. A preliminary scan was performed at a scan speed of 50 mm/second with a scan resolution of 1.5 mm X 1.5 mm to determine the region of interest in PT and L4. Small subject software was employed at a scan speed of 10mm/second with resolution of 0.5 mm X 0.5 mm for final BMD measurements. The software allows the operator to define a 1.5 cm wide area to cover the total length of L4. The BMDs for respective sites were computed by the software as a function of the attenuation of the dual beam (46.8 KeV and 80 KeV) X-ray generated by the source underneath the subject and the detector travelling along the defined area above the subject. The data for BMD values (expressed in g/cm2) and individual scans were stored for statistical analysis. One week after BMD evaluation the rats were sacrificed by carbon dioxide suffocation and blood collected for cholesterol determination. The uteri were removed and the weights taken. Total cholesterol is determined using a Boehringer-Mannheim Hitachi 911 clinical analyzer using the Cholesterol/HP kit. Statitstics were compared using one-way analysis of variance with Dunnet's test.

Ishikawa cells = experiment: Ishikawa Cell Alkaline Phosphatase Assay; format: cell-based, human; settings: for % Activation: percent of response related to 1 nM 17β-estradiol, 48 h
Protocol: Cells were treated for 48 h prior to assay. […] Sample population for at each dose was n=8. […] Plates are placed at -80°C for a minimum of 15 minutes. Plates are thawed at 37°C followed by the addition of 150μL of 0.1 M Tris-HCl, pH 9.8, containing 4 mM para-nitrophenylphosphate (pNPP) to each well (final concentration. 3 mM pNPP). Absorbance and slope calculations were made using the […] Application program (Bio-Tek Instruments, Inc., Winooski, VT). […] Various compounds were assayed for estrogenic activity by the alkaline phosphatase method and corresponding ED50 values (95% C.I.) were calculated. The four listed in the following were used as as reference standards: A description of these methods is described by Holinka, […]., Kuramoto, H. and Gurpide, E. (1986) Effects of steroid hormones and antisteroids on alkaline phosphatase activity in human endometrial cancer cells (Ishikawa Line). Cancer Research, 46:2771-2774, and by […]. and […] simple and sensitive microtiter plate estrogen bioassay based on stimulation alkaline phosphatase in Ishikawa cells; […] Endocrinology, 6:2757-2762.

[1] = with 1 nM 17β-estradiol (antiestrogen test)

SMILES | BMD L4 (Ovariectomized Rat; 0.3mg/kg, p.o.) [mg/cm^2] | BMD Proximal Tibia (Ovariectomized Rat; 0.3mg/kg, p.o.) | Body Weight (Ovariectomized Rat; 0.3mg/kg, p.o.) [g] | Cholesterol (Ovariectomized Rat; 0.3mg/kg, p.o.) | Uterine Weight (Ovariectomized Rat; 0.3mg/kg, p.o.) [mg] | % Activation (Ishikawa cells; compound alone) | % Activation (Ishikawa cells; [1]) | BMD L4 (Ovariectomized Rat; 3mg/kg, p.o.) [mg/cm^2] | BMD Proximal Tibia (Ovariectomized Rat; 3mg/kg, p.o.) | Body Weight (Ovariectomized Rat; 3mg/kg, p.o.) | Cholesterol (Ovariectomized Rat; 3mg/kg, p.o.) | Uterine Weight (Ovariectomized Rat; 3mg/kg, p.o.) | Body Weight (Ovariectomized Rat; 2µg/rat, s.c.) | EC50 (Ishikawa cells; Homo sapiens, Ishikawa, estrogenic activity by the alkaline phosphatase method, reference standards, read-out: ED50 values (95% C.I.)) [nM]
Cc1c(-c2ccc(O)cc2)n(Cc2ccc(OCCN3CCCCCC3)cc2)c2ccc(O)cc12 [Example No. 98, 1-[4-(2-Azepan-1-yl-ethoxy)-benzyl]-2-(4-hydroxy-phenyl)-3-methyl-1H-indol-5-ol] | 0.173 | 0.210** mg/cm^2 | 46.8 | 59.0** mg/dl | 149.3 | 1% activity (1% with 1 nM 17β-estradiol) | 1% activity (1% with 1 nM 17β-estradiol) | – | – | – | – | – | – | –
O=C(c1ccc(OCCN2CCCCC2)cc1)c1c(-c2ccc(O)cc2)sc2cc(O)ccc12 [raloxifene] | – | – | – | – | – | 5% activity (5% with 1 nM 17β-estradiol) | 5% activity (5% with 1 nM 17β-estradiol) | 0.170 | 0.207** mg/cm^2 | 25.3** g | 55.0** mg/dl | 191.6** mg | – | –
C[C@]12CC[C@@H]3c4ccc(O)cc4CC[C@H]3[C@@H]1CC[C@@H]2O [17β-estradiol] | – | – | – | – | – | […] | – | – | – | – | – | – | 33.1** g | […]

Source: patent publication EP1076558B1, “2-PHENYL-1-[-(2-AMINOETHOXY)-BENZYL -INDOLE IN COMBINATION WITH ESTROGENS” (Wyeth, priority 1998, dated 1999)
